Series [1] is described as follows: DPPH radical scavenging test. The following applies: compound at 1 mg/mL, 30 min, 517 nm; mean ± SEM. The procedure:
The DPPH assay is widely used, and the simplest and fastest in vitro method for evaluating the antioxidant power of extracts or isolated compounds; it is based on the depletion of the 2,2-diphenyl-1-picrylhydrazyl radical (DPPH˙) by an antioxidant molecule with scavenger activity. This is an extremely sensitive test that can detect the activity of active ingredients present in very low concentrations.
The procedure used was adapted from Wang et al.. Briefly, 0.750 mL of a methanolic solution of each tested compound was treated with 1.5 mL of DPPH solution (0.004%) in MeOH. Samples were stored in the dark at room temperature for 30 min, and the absorbance value was read with a spectrophotometer at 517 nm, which is the maximum peak of absorbance relative to the DPPH radical absorption spectra. The values obtained were fitted into Equation (1) and converted to inhibition percentage (%) of the radical:DPPH inhibition percentage (%) = 100 × [1 − A1/A0](1) where A1 and A0 were, respectively, the absorbance recorded with and without the sample, which are directly proportional to DPPH residual concentration in the sample and DPPH concentration in the control (0.750 of MeOH and 1.5 mL of DPPH solution). […] A linear regression was performed to calculate the sample concentration able to eliminate 50% of DPPH free radicals.
(The DPPH test is a chemical assay of radical scavenging.)

Series [2] is described as follows: UV spectra in solution (MeOH-DMSO): λmax and molar extinction coefficient. Format: physicochemical. The following applies: for ε (molar extinction coefficient): at λmax, Lambert-Beer equation, in M-1 cm-1 (unit assumed); for λmax: solution in MeOH-DMSO, 290–400 nm. On the procedure: We next investigated the protective potential against UV radiation of each compound. Specifically, in vitro tests were conducted to determine the parameters related to absorption in the UV spectrum and those fundamental to the relative evaluation of the filtering potential and thus candidature as possible UV sunscreen ingredients of the candidates under examination, including λ critical and SPF (sun protection factor). Since the SPF is correlated to the UV quantitative absorption of the substances, the wavelength of maximum absorption (λmax) and the molar extinction coefficient (ε) of the derivatives in solution (MeOH-DMSO) were evaluated (Figures S1 and S2, Supplementary Materials). The UV spectra of the compounds BZTidr1–6 and BZTcin1–5 were recorded in the UVA-UVB range (290–400 nm) to evaluate their profile and compare it to that of the PBSA, a commercial UVB filter that has a λmax of 302 nm. After this peak, the absorbance of PBSA drops, reaching almost zero in the 325 nm range, and thus not providing absorption in the UVA region.
Once the λmax of each derivative was established, the molar extinction coefficient ε was calculated by applying the Lambert-Beer equation (Table S1, Supplementary Materials): the higher this value, the greater the ability of the compound under examination to absorb UV radiation. […] The excellent values of BZTidr1, BZTidr2 and BZTidr3 are ascribed to the aforementioned hyperchromic shift. In regard to the BZTcin1–5 series, the molar extinction coefficients calculated were very high, and the best values were those of BZTcin1, BZTcin2 and BZTcin3, also attributable to the hyperchromic shift of the absorption spectra. For both series, the excellent absorption capacity of ultraviolet radiation can be traced back to the high π-type conjugation that characterizes them.

Series [3] is described as follows: In vitro filtering parameters of O/W sunscreen formulation containing 3% compound (modified Diffey-Robson, PMMA plates). The conditions noted are these: 3% in formulation, before irradiation. From the text:
All synthesized compounds were formulated at 3% and their photoprotective efficacy, determined by spectrophotometric measurements using the modified Diffey-Robson method, was compared with that of the lead compound PBSA (used at 3% in the same formulation) and using the base without active as a control (Table 2).
The synthesized compounds were incorporated at a concentration of 3% in a typical oil-in-water sunscreen formulation, to evaluate the filtering parameters, and have the following ingredient composition:
INCI (International Nomenclature Cosmetic Ingredients): aqua, glycerin, Euxyl PE 9010, xanthan gum, Tribehenin PEG-20 Esters, cetearyl alcohol, dicaprylyl carbonate, PPG-26-Buteth-26 (and) PEG-40 Hydrogenated Castor Oil (and) water, C12-C15 Alkyl Benzoate, and Sodium hydroxide (sol. 10%).
As previously reported the protocol indicates to spread 32.5 mg of each formulation on 25 cm^2 PMMA plates with the fingers. Each formulation was tested in triplicate, and five measurements were recorded for each dish, following a 15–30 min incubation in the dark at room temperature. UV transmittance data was recorded using a UV-VIS spectrophotometer in the range 290–400 nm. The blank plate, SPF, UVA-PF and critical wavelength were obtained by SPF Calculator software (version 2.1), Shimadzu, Milan, Italy).

Series [4] is described as follows: Photostability study of 3% formulation (post-irradiation filtering parameters). The following applies: 3% in formulation, post irradiation. An excerpt: To outline the efficacy and safety profile of a sunscreen formulation, it is essential to provide data relating to photostability. It is possible to provide photodegradation data by recording, pre- and post-irradiation, the transmittance of PMMA plates with finger-coat formulations subjected to a dose of UVA capable of causing erythema, according to the criteria of Garoli et al.. By means of Equations (2) and (3) it was possible to evaluate the residual percentage of SPF in vitro and of UVA-PF for all the prepared formulations. Of greatest interest are the values obtained for the derivatives BZTcin2 and BZTcin4.
To determine the photostability, the previously reported method was adopted, which consists in preparing each plate as mentioned above and subjecting it to solar irradiation quantified as the minimum dose of UVA equivalent to an effective radiant exposure of erythema. The protocol stipulates that, before and after exposure to sunlight, the transmission of the sun protection layer in the range of 290–400 nm is recorded.
Using Equations (2) and (3) below, the residual percentage of SPF in vitro (% SPFeff.) and UVA-PF (% UVA-PFeff.) have been obtained, which, if greater than or equal to 80, can classify a filter as photostable. %SPFeff. = in vitro SPFafter/in vitro SPFbefore × 100(2) %UVA − PFeff. = UVA − PFafter/UVA − PFbefore × 100(3)

The next series concerns HaCat keratinocytes. As to the kind of experiment: Cell growth inhibition assay, HaCat. Format: cell-based, human. The following applies: Homo sapiens, HaCaT; 24 h incubation, cell count. The procedure: (§1) All synthesized compounds were tested in order to evaluate their in vitro antiproliferative activity. The human melanoma Colo-38 cell line was selected as a tumor skin model, while the immortalized human HaCaT keratinocytes were chosen as a control for the evaluation of the cytotoxicity towards non-cancerous cells and of the selectivity towards tumor cell lines. […] The selectivity index (SI) was also calculated and is the ratio between the IC50 of a given compound towards the non-cancerous cell line and the IC50 of the same compound towards the tumor cell line.
(§2) Cell growth inhibition assays were carried out using human melanoma Colo-38 cells and skin HaCat keratinocytes cells. Human melanoma Colo-38 cells were kindly provided by Dr. Patrizio Giacomini (Laboratory of Immunology, Regina Elena Institute, Rome, Italy). HaCat cells were kindly provided by Istituto Zooprofilattico Sperimentale della Lombardia e dell’Emilia Romagna, Brescia, Italy. Cell lines were seeded using concentrations of 40,000 cells/mL and 25,000 cells/mL, respectively. Colo-38 cells were maintained in RPMI 1640, supplemented with 10% fetal bovine serum (FBS), penicillin (100 Units mL^−1), and streptomycin (100 µg mL^−1). HaCat cells were maintained in DMEM, supplemented with 10% fetal bovine serum (FBS), penicillin (100 Units mL^−1), streptomycin (100 µg mL^−1) and glutamine (2 mM); the incubation was performed at 37 °C in a 5% CO2 atmosphere. Tested compounds were dissolved in MeOH/DMSO (1:1) to obtain 50 mM stock solutions and diluted before cell treatment in MeOH 100%. The tested compounds were added at serial dilutions to the cell cultures (from 0.1 to 100 µM) and incubated for 24 h further. Cells were then harvested, suspended in physiological solution, and counted with a Z2 Coulter Counter (Coulter Electronics, Hialeah, FL, USA). The cell number/mL and the IC50 values were determined when untreated cells were in the log phase of cell growth. Cells treated with vehicles and untreated cells were placed in each plate.

In another series the test system is melanoma Colo-38 cells. As to the kind of experiment: Cell growth inhibition assay, Colo-38. Format: cell-based, human. The following applies: Homo sapiens; 24 h incubation, cell count. On the procedure:
as §1, §2

Series [5] can be described thus: FRAP (Ferric Reducing Antioxidant Power) assay. The following applies: Trolox standard, 37 °C 10 min, 593 nm; mean ± SEM. From the text:
The FRAP (Ferric Reducing Antioxidant Power) test allows the measurement of the ability of antioxidants to reduce ferric ion to ferrous. This method represents one of the simplest, quickest and least expensive methods for the determination of reducing properties on oxidized species in vitro.
The FRAP test (Ferric Reducing Antioxidant Power) is based on a colorimetric reaction and evaluates the ability of a sample of reducing ferric ions to ferrous ion while complexed with TPTZ (2,4,6-trispyridil-s-triazine). The FRAP solution was prepared from 0.1 M acetate buffer (pH 3.6), 10 mmol/L of TPTZ in 40 mM HCl, and 20 mM solution of FeCl3, with a 10:1:1 ratio, as described. Then, 1.9 mL of this solution was incubated with 0.1 mL of the sample solution at 37 °C for 10 min. The absorbance was read with a UV-Vis spectrophotometer at a 593 nm wavelength, relative to the maximum peak of absorbance of Fe^2+-TPTZ complex. Trolox® was used as a standard and the results are expressed as µmolTE/g.

Each structure is given as a SMILES string.

Usually IC50 stands for the concentration that gives 50% inhibition. Lower therefore signals inhibition by little substance. What is called melting point is the temperature, or range, at which the solid turns liquid. As to `O=C(N/N=C/c1ccc(O)c(O)c1)c1nc2ccccc2s1` [BZTidr4, (E)-N′-(3,4-dihydroxybenzylidene)benzo[d]thiazole-2-carbohydrazide], the melting point is above 280 °C. For the same compound, the “DPPH (% Inhibition)” value in series [1] was above 90.00%. Further, in series [2], the “ε (molar extinction coefficient)” value turned out to be 22183.99 and the λmax was 346.2 nm. Also, in series [3], the SPF is 1.53, the UVA/UVB was 1.05, the UVAPF0 is 1.65 and the λc amounted to 389 nm. Also, in series [4], the SPF came to 1.63, the UVA/UVB was 1.05, the UVAPF is recorded as 1.64 and the λc turned out to be 389 nm. Further, the IC50 with HaCat keratinocytes was above 100 µM. This compound also registered an IC50 in the series with melanoma Colo-38 cells of 92.9 ± 1.62 µM.
Take `COc1ccc(/C=N/NC(=O)c2nc3ccccc3s2)cc1` [BZTidr3, (E)-N′-(4-methoxybenzylidene)benzo[d]thiazole-2-carbohydrazide]: the melting point was 208 to 215 °C. Also, the “DPPH (% Inhibition)” value in series [1] is 24.25 ± 1.38%. Further, the FRAP in series [5] worked out at 273.99 ± 10.12 µmolTE/g. In addition, in series [2], the “ε (molar extinction coefficient)” value was 29641.85 and the λmax is given as 333.1 nm. In series [3], this compound registered an SPF of 1.31, a UVA/UVB of 1.11, a UVAPF0 of 1.44 and a λc of 387 nm. In series [4], this compound yielded an SPF of 1.31, a UVA/UVB of 1.11, a UVAPF of 1.41 and a λc of 387 nm.
`O=C(N/N=C/c1ccccc1)c1nc2ccccc2s1` [BZTidr1, (E)-N′-benzylidenebenzo[d]thiazole-2-carbohydrazide] yielded a melting point of 227 to 230 °C. In addition, in series [1], the “DPPH (% Inhibition)” value was 10.95 ± 0.12%. The compound also registered an FRAP in series [5] of 282.16 ± 15.03 µmolTE/g. For the same compound, in series [2], the “ε (molar extinction coefficient)” value is given as 33223.32 and the λmax was 319.4 nm. In series [3], this compound gave an SPF of 1.48, a UVA/UVB of 1.00, a UVAPF0 of 1.37 and a λc of 374 nm. In series [4], this compound gave an SPF of 1.42, a UVA/UVB of 1.00, a UVAPF of 1.42 and a λc of 372 nm.

The values above are taken from article PMC9822352, “Design, Synthesis and Evaluation of New Multifunctional Benzothiazoles as Photoprotective, Antioxidant and Antiproliferative Agents” (Molecules, 2022).
